“Also recorded” adds a separate entry of the source.
Tests used:
NGF receptor PTK (Trk) = experiment: Inhibition of NGF receptor PTK (NGF-induced TrkA autophosphorylation, immunoprecipitation and anti-phosphotyrosine immunoblot) in PC12 cells; format: cell-based, rat; settings: K252a 1 μM, 2 min (short) preincubation, then NGF 150 ng/ml 10 min; PC12 cells overexpressing TrkA
From the text: (§1) PC 12 cells (rat pheochromocytoma cells) which overexpress NGF receptors (Trk A) (Obermeier et al. (1994)) were used for the experiments shown. Stimulation of the cells with NGF leads to a rapid autophosphorylation of these receptors at tyrosine residues. This autophosphorylation can be detected in immunoblots using anti-phosphotyrosine antibodies after immunoprecipitation of the receptors. The identity of the cellular PTPases which dephosphorylate autophosphorylated NGF receptors is not known.
PC12 cells that overexpress TrkA were incubated as stated for various periods in serum-free cell culture medium without supplements (lanes 1, 2) or with the NGF receptor PTK inhibitor K252a (final concentration 1 μM) (lanes 3-6). Then NGF (final concentration 150 ng/ml) (lanes 2-6) or the corresponding solvent (lane 1) was added and the incubation was continued for 10 minutes.

NGF receptor = NGF receptor dephosphorylation over time in intact NGF-stimulated TrkA-transfected PC12 cells after addition of PTK inhibitor; format: cell-based, rat; settings: K252a 1 μM added after 10 min NGF stimulation; intact PC12 cells transfected with TrkA
From the text: as §1
PC12 cells transfected with TrkA were treated in serum-free medium with NGF (lanes 2-6) or the corresponding solvent (lane 1). After a 10 minute stimulation, K252a (1 μM, B) or the corresponding solvent (DMSO, A) was added. At the stated various time points the cells treated correspondingly were tested as described in FIG. 1 and the phosphotyrosine content of the NGF receptors was examined. […] This decrease is caused by the activity of the NGF receptor-directed PTPase in the intact cells.

NGF receptor PTK = settings: Ohmichi et al (1992); Tapley et al (1992); cited from earlier work
[1] = tested on: PDGF receptor-directed PTPase(s); format: cell-based, mouse
[2] = tested on: PDGF receptor-directed PTPase(s); experiment: PDGF receptor-directed PTPase activity (dephosphorylation of autophosphorylated PDGF receptor) in isolated Swiss 3T3 cell membranes; format: biochemical, mouse; settings: AG1296 50 μM, 30 min incubation, 10 mM EDTA
From the text: (§2) Swiss 3T3 fibroblasts (mouse) express PDGFα and PDGFβ receptors on the cell surface (Hosang et al. (1989)). Stimulation of the cells with PDGF leads to a rapid autophosphorylation of these receptors at tyrosine residues. This autophosphorylation can be detected in immunoblots using anti-phosphotyrosine antibodies after immunoprecipitation of the receptors and can be detected in unfractionated cell lysates. The autophosphorylated receptors are rapidly dephosphorylated by PDGF receptor-directed PTPase(s) (Bohmer et al. (1993)). The identity of the cellular PTPases which catalyse this reaction is not known. […] If the inhibitor is added to cells after activation of the PDGF receptor PTK, the dephosphorylation of the PDGF receptor can be monitored over time. (FIG. 3).
Isolated Swiss 3T3 cell membranes (10 μg protein per lane) were treated for 20 minutes on ice with PDGF (2 μg/ml). The activated PDGF receptor PTK was then autophosphorylated by adding 3 mM (final concentration) ATP. The kinase reaction was inhibited by addition of 10 mM EDTA. At the same time AG1296 (50 μM) (B) or the corresponding solvent (DMSO) (A) was added. The phosphotyrosine content of the PDGF receptor was measured in a similar manner to that described in FIG. 1 immediately after addition of the agents (0 min) or after 30 min incubation. […]

PDGF receptor = PDGF receptor dephosphorylation over time in intact PDGF-stimulated Swiss 3T3 cells after addition of PTK inhibitor; format: cell-based, mouse; settings: AG1296 50 μM added after 5 min PDGF stimulation; intact Swiss 3T3 cells
From the text: as §2
Swiss 3T3 cells were treated in serum-free medium with PDGF (FIG. 3, lanes 2-6) or the corresponding solvent (FIG. 3, lane 1). After 5 minutes stimulation AG1296 (50 μM, FIG. 3B) or the corresponding solvent (DMSO, FIG. 3 A) was added. The phosphotyrosine content of the PDGF receptor was examined in the cells thus treated at the stated various time points. […] This decrease is caused by the activity of the PDGF receptor-directed PTPase in the intact cells.

PDGF receptor PTK = experiment: Inhibition of PDGF receptor PTK (PDGF-induced receptor autophosphorylation, anti-phosphotyrosine immunoblot) in Swiss 3T3 cells; format: cell-based, mouse; settings: AG1296 50 μM, 2 min preincubation, then PDGF-BB 100 ng/ml 5 min
From the text: as §2
Confluent, resting Swiss 3T3 cells were incubated as stated for various periods in serum-free cell culture medium without supplements (lanes 1, 2) or with the PDGF receptor PTK inhibitor AG1296 (final concentration 50 μM) (lanes 3-6). Then human recombinant PDGF-BB (final concentration 100 ng/ml) (lanes 2-6) or the corresponding solvent (lane 1) was added and the incubation was continued for 5 minutes.

COC(=O)C1(O)CC2OC1(C)n1c3ccccc3c3c4c(c5c6ccccc6n2c5c31)C(=O)NC4 (centres unmarked) [K252a]
inhibition of Trk receptor PTK activity / NGF-induced receptor autophosphorylation (NGF receptor PTK (Trk)): completely inhibits the activity; also recorded: completely suppressed
phosphotyrosine content of the NGF receptor over time (NGF receptor): very rapid dephosphorylation; also recorded: decreases significantly
specificity of inhibition of NGF receptor PTK and PTK of other neurotrophin receptors (NGF receptor PTK): specific inhibitor of the NGF receptor PTK

CNc1ccc2oc(CC3OC4(CCC3C)OC(C(C)C(=O)c3ccc[nH]3)C(C)CC4C)nc2c1C(=O)O (centres unmarked) [A23187]
action on PTPases which specifically dephosphorylate the PDGF receptor [1]: activator
Relative PDGF receptor-directed PTPase activity (% of control) ([1]; swiss 3t3 cells, 5 min, 1 µM): 161 % of control

COc1cc2ncc(-c3ccccc3)nc2cc1OC [AG1296]
influence on PDGF receptor-directed PTPase activity (dephosphorylation) [2]: does not influence the activity of the PTPase(s); also recorded: does not inhibit; also recorded: does not influence this dephosphorylation
phosphotyrosine content of the PDGF receptor over time (PDGF receptor): continuously decreases
inhibition of PDGF receptor PTK activity / PDGF-induced receptor autophosphorylation (PDGF receptor PTK): completely inhibits its activity; also recorded: completely suppressed

Reference: US5958719A, “Method for the determination of the activity of specific phosphotyrosine phosphatases and specific effectors thereof in intact cells” (Max-Planck Gesellschaft Zur Foderung der Wissenschaften E.V., priority 1995, dated 1999)
